{"source": "PubChem BioAssay (NCI)", "assay_in_all_cases": "NCI tumour cell line growth inhibition, 48 h", "key": {"MOLT-4 leukemia": {"system": "MOLT-4 leukemia"}, "SK-MEL-28 melanoma": {"system": "SK-MEL-28 melanoma"}, "EKVX NSCLC": {"system": "EKVX NSCLC"}, "SK-MEL-2 melanoma": {"system": "SK-MEL-2 melanoma"}, "SF-268 CNS": {"system": "SF-268 CNS"}, "HOP-92 NSCLC": {"system": "HOP-92 NSCLC"}, "UACC-257 melanoma": {"system": "UACC-257 melanoma"}, "OVCAR-3 ovarian": {"system": "OVCAR-3 ovarian"}, "UACC-62 melanoma": {"system": "UACC-62 melanoma"}, "NCI-H522 lung": {"system": "NCI-H522 lung"}}, "note": "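Cells were grown in 96-well plates and exposed to each compound for 48 hours at five concentrations; endpoints were interpolated linearly between bracketing concentrations, or set to the highest concentration if not reached. At the TGI there is no net growth.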"}
{"smiles": "NC(Cc1ccc2oc3cc(=O)c4ccccc4c-3nc2c1)C(=O)O", "note": "(configuration not stated)", "values": [{"measurement": "TGI", "setting": "MOLT-4 leukemia", "value": "> 88.3", "unit": "µM"}, {"measurement": "TGI", "setting": "SK-MEL-28 melanoma", "value": 59, "unit": "µM"}, {"measurement": "TGI", "setting": "EKVX NSCLC", "value": "> 100", "unit": "µM"}, {"measurement": "TGI", "setting": "SK-MEL-2 melanoma", "value": 74.3, "unit": "µM"}, {"measurement": "TGI", "setting": "SF-268 CNS", "value": "> 100", "unit": "µM"}, {"measurement": "TGI", "setting": "HOP-92 NSCLC", "value": "> 100", "unit": "µM"}, {"measurement": "TGI", "setting": "UACC-257 melanoma", "value": 39.3, "unit": "µM"}, {"measurement": "TGI", "setting": "OVCAR-3 ovarian", "value": 81.5, "unit": "µM"}, {"measurement": "TGI", "setting": "UACC-62 melanoma", "value": 22.5, "unit": "µM"}, {"measurement": "TGI", "setting": "NCI-H522 lung", "value": 77.7, "unit": "µM"}]}
{"smiles": "COc1cc2c(cc1OC)C(C1(O)CCCCC1)NCC2", "note": "(configuration not stated)", "values": [{"measurement": "TGI", "setting": "MOLT-4 leukemia", "value": "> 100", "unit": "µM"}, {"measurement": "TGI", "setting": "SK-MEL-28 melanoma", "value": "> 100", "unit": "µM"}, {"measurement": "TGI", "setting": "EKVX NSCLC", "value": "> 100", "unit": "µM"}, {"measurement": "TGI", "setting": "SK-MEL-2 melanoma", "value": "> 100", "unit": "µM"}, {"measurement": "TGI", "setting": "SF-268 CNS", "value": "> 100", "unit": "µM"}, {"measurement": "TGI", "setting": "HOP-92 NSCLC", "value": "> 100", "unit": "µM"}, {"measurement": "TGI", "setting": "UACC-257 melanoma", "value": "> 100", "unit": "µM"}, {"measurement": "TGI", "setting": "OVCAR-3 ovarian", "value": "> 100", "unit": "µM"}, {"measurement": "TGI", "setting": "UACC-62 melanoma", "value": "> 100", "unit": "µM"}]}
{"smiles": "Cc1c(Cl)c(S(N)(=O)=O)cc(S(N)(=O)=O)c1NC(=O)c1ccc(Cl)cc1", "values": [{"measurement": "TGI", "setting": "MOLT-4 leukemia", "value": "> 100", "unit": "µM"}, {"measurement": "TGI", "setting": "SK-MEL-28 melanoma", "value": "> 100", "unit": "µM"}, {"measurement": "TGI", "setting": "SF-268 CNS", "value": "> 100", "unit": "µM"}, {"measurement": "TGI", "setting": "HOP-92 NSCLC", "value": "> 100", "unit": "µM"}, {"measurement": "TGI", "setting": "UACC-257 melanoma", "value": "> 100", "unit": "µM"}, {"measurement": "TGI", "setting": "OVCAR-3 ovarian", "value": "> 100", "unit": "µM"}, {"measurement": "TGI", "setting": "UACC-62 melanoma", "value": "> 100", "unit": "µM"}, {"measurement": "TGI", "setting": "NCI-H522 lung", "value": "> 100", "unit": "µM"}]}
{"smiles": "O=[N+]([O-])/C=C/c1cccc(F)c1", "values": [{"measurement": "TGI", "setting": "SK-MEL-28 melanoma", "value": 5.87, "unit": "µM"}, {"measurement": "TGI", "setting": "EKVX NSCLC", "value": 7.45, "unit": "µM"}, {"measurement": "TGI", "setting": "SK-MEL-2 melanoma", "value": 29.9, "unit": "µM"}, {"measurement": "TGI", "setting": "SF-268 CNS", "value": 29.4, "unit": "µM"}, {"measurement": "TGI", "setting": "HOP-92 NSCLC", "value": 27.6, "unit": "µM"}, {"measurement": "TGI", "setting": "UACC-257 melanoma", "value": 15.8, "unit": "µM"}, {"measurement": "TGI", "setting": "OVCAR-3 ovarian", "value": 7.38, "unit": "µM"}, {"measurement": "TGI", "setting": "UACC-62 melanoma", "value": 22.5, "unit": "µM"}, {"measurement": "TGI", "setting": "NCI-H522 lung", "value": 26.9, "unit": "µM"}]}
{"smiles": "C#CCCCCC#CC1CCCC1C1=CC(=O)c2ccccc21", "note": "(configuration not stated)", "values": [{"measurement": "TGI", "setting": "MOLT-4 leukemia", "value": "> 100", "unit": "µM"}, {"measurement": "TGI", "setting": "SK-MEL-28 melanoma", "value": 18.5, "unit": "µM"}, {"measurement": "TGI", "setting": "EKVX NSCLC", "value": 28, "unit": "µM"}, {"measurement": "TGI", "setting": "SK-MEL-2 melanoma", "value": 24.8, "unit": "µM"}, {"measurement": "TGI", "setting": "SF-268 CNS", "value": 11.8, "unit": "µM"}, {"measurement": "TGI", "setting": "HOP-92 NSCLC", "value": 16.1, "unit": "µM"}, {"measurement": "TGI", "setting": "UACC-257 melanoma", "value": 25.2, "unit": "µM"}, {"measurement": "TGI", "setting": "OVCAR-3 ovarian", "value": 17.8, "unit": "µM"}, {"measurement": "TGI", "setting": "UACC-62 melanoma", "value": 6.44, "unit": "µM"}, {"measurement": "TGI", "setting": "NCI-H522 lung", "value": 22, "unit": "µM"}]}
{"smiles": "Oc1ccc2ccccc2c1N=Nc1ccc(N=Nc2ccccc2)cc1", "values": [{"measurement": "TGI", "setting": "MOLT-4 leukemia", "value": "> 100", "unit": "µM"}, {"measurement": "TGI", "setting": "SK-MEL-28 melanoma", "value": "> 100", "unit": "µM"}, {"measurement": "TGI", "setting": "EKVX NSCLC", "value": "> 100", "unit": "µM"}, {"measurement": "TGI", "setting": "SK-MEL-2 melanoma", "value": "> 100", "unit": "µM"}, {"measurement": "TGI", "setting": "SF-268 CNS", "value": "> 100", "unit": "µM"}, {"measurement": "TGI", "setting": "UACC-257 melanoma", "value": "> 100", "unit": "µM"}, {"measurement": "TGI", "setting": "OVCAR-3 ovarian", "value": "> 100", "unit": "µM"}, {"measurement": "TGI", "setting": "UACC-62 melanoma", "value": "> 100", "unit": "µM"}, {"measurement": "TGI", "setting": "NCI-H522 lung", "value": "> 100", "unit": "µM"}]}
{"smiles": "CCCCCCc1ccc(O)cc1O", "values": [{"measurement": "TGI", "setting": "MOLT-4 leukemia", "value": 97.4, "unit": "µM"}, {"measurement": "TGI", "setting": "SK-MEL-28 melanoma", "value": "> 100", "unit": "µM"}, {"measurement": "TGI", "setting": "EKVX NSCLC", "value": "> 100", "unit": "µM"}, {"measurement": "TGI", "setting": "SK-MEL-2 melanoma", "value": 64, "unit": "µM"}, {"measurement": "TGI", "setting": "SF-268 CNS", "value": "> 100", "unit": "µM"}, {"measurement": "TGI", "setting": "HOP-92 NSCLC", "value": 86.9, "unit": "µM"}, {"measurement": "TGI", "setting": "UACC-257 melanoma", "value": "> 85.1", "unit": "µM"}, {"measurement": "TGI", "setting": "OVCAR-3 ovarian", "value": "> 100", "unit": "µM"}, {"measurement": "TGI", "setting": "UACC-62 melanoma", "value": "> 79.1", "unit": "µM"}, {"measurement": "TGI", "setting": "NCI-H522 lung", "value": "> 100", "unit": "µM"}]}
{"smiles": "Nc1nc(Cl)cc(NCCCCO)n1", "values": [{"measurement": "TGI", "setting": "MOLT-4 leukemia", "value": "> 100", "unit": "µM"}, {"measurement": "TGI", "setting": "SK-MEL-28 melanoma", "value": "> 100", "unit": "µM"}, {"measurement": "TGI", "setting": "EKVX NSCLC", "value": "> 100", "unit": "µM"}, {"measurement": "TGI", "setting": "SK-MEL-2 melanoma", "value": "> 100", "unit": "µM"}, {"measurement": "TGI", "setting": "SF-268 CNS", "value": "> 100", "unit": "µM"}, {"measurement": "TGI", "setting": "HOP-92 NSCLC", "value": "> 100", "unit": "µM"}, {"measurement": "TGI", "setting": "UACC-257 melanoma", "value": "> 100", "unit": "µM"}, {"measurement": "TGI", "setting": "OVCAR-3 ovarian", "value": "> 10", "unit": "µM"}, {"measurement": "TGI", "setting": "UACC-62 melanoma", "value": "> 100", "unit": "µM"}]}
{"smiles": "CCOC(=O)C1=C(C)N2CCCOC2(C)C(C(=O)OC)C1c1cccc([N+](=O)[O-])c1", "note": "(configuration not stated)", "values": [{"measurement": "TGI", "setting": "MOLT-4 leukemia", "value": "> 100", "unit": "µM"}, {"measurement": "TGI", "setting": "SK-MEL-28 melanoma", "value": "> 100", "unit": "µM"}, {"measurement": "TGI", "setting": "EKVX NSCLC", "value": "> 100", "unit": "µM"}, {"measurement": "TGI", "setting": "SK-MEL-2 melanoma", "value": "> 100", "unit": "µM"}, {"measurement": "TGI", "setting": "SF-268 CNS", "value": "> 100", "unit": "µM"}, {"measurement": "TGI", "setting": "HOP-92 NSCLC", "value": "> 100", "unit": "µM"}, {"measurement": "TGI", "setting": "UACC-257 melanoma", "value": "> 100", "unit": "µM"}, {"measurement": "TGI", "setting": "OVCAR-3 ovarian", "value": "> 100", "unit": "µM"}, {"measurement": "TGI", "setting": "UACC-62 melanoma", "value": "> 100", "unit": "µM"}]}
{"smiles": "CN[C@@H]1[C@H](O)[C@H](NC)[C@H]2O[C@@]3(O)C(=O)C[C@@H](C)O[C@H]3O[C@@H]2[C@H]1O", "values": [{"measurement": "TGI", "setting": "MOLT-4 leukemia", "value": "> 100", "unit": "µM"}, {"measurement": "TGI", "setting": "SK-MEL-28 melanoma", "value": "> 100", "unit": "µM"}, {"measurement": "TGI", "setting": "EKVX NSCLC", "value": "> 100", "unit": "µM"}, {"measurement": "TGI", "setting": "SF-268 CNS", "value": "> 100", "unit": "µM"}, {"measurement": "TGI", "setting": "HOP-92 NSCLC", "value": "> 100", "unit": "µM"}, {"measurement": "TGI", "setting": "UACC-257 melanoma", "value": "> 100", "unit": "µM"}, {"measurement": "TGI", "setting": "OVCAR-3 ovarian", "value": "> 100", "unit": "µM"}, {"measurement": "TGI", "setting": "UACC-62 melanoma", "value": "> 100", "unit": "µM"}, {"measurement": "TGI", "setting": "NCI-H522 lung", "value": "> 100", "unit": "µM"}]}
{"smiles": "Cc1ccccc1N=Nc1ccc(N=Nc2c(O)ccc3cc(S(=O)(=O)O)cc(S(=O)(=O)O)c23)c(C)c1", "values": [{"measurement": "TGI", "setting": "MOLT-4 leukemia", "value": "> 100", "unit": "µM"}, {"measurement": "TGI", "setting": "SK-MEL-28 melanoma", "value": "> 100", "unit": "µM"}, {"measurement": "TGI", "setting": "EKVX NSCLC", "value": "> 100", "unit": "µM"}, {"measurement": "TGI", "setting": "SK-MEL-2 melanoma", "value": "> 100", "unit": "µM"}, {"measurement": "TGI", "setting": "SF-268 CNS", "value": "> 100", "unit": "µM"}, {"measurement": "TGI", "setting": "HOP-92 NSCLC", "value": "> 100", "unit": "µM"}, {"measurement": "TGI", "setting": "UACC-257 melanoma", "value": "> 100", "unit": "µM"}, {"measurement": "TGI", "setting": "OVCAR-3 ovarian", "value": "> 100", "unit": "µM"}, {"measurement": "TGI", "setting": "UACC-62 melanoma", "value": "> 100", "unit": "µM"}, {"measurement": "TGI", "setting": "NCI-H522 lung", "value": "> 100", "unit": "µM"}]}
